Experimental data reported in US20110301142A1, “ANTAGONISTS OF LYSOPHOSPHATIDIC ACID RECEPTORS” (priority 2008, published 2011).

Experiments:
[1] = target: T1, human LPA3 (Homo sapiens, UniProt Q9UBY5); assay: LPA3 calcium flux assay; format: cell-based; details: Human LPA3 expressing CHO cells, stimulated with 10 nM LPA; read-out: HLPA3 Ca Flux IC50
T1 construct: The full-length cDNA fragment for human LPA3 was obtained by PCR from the vector; expressed in transfected cells; cDNA from the Missouri S&T cDNA Resource Center
T1 sequence (Q9UBY5 1-353): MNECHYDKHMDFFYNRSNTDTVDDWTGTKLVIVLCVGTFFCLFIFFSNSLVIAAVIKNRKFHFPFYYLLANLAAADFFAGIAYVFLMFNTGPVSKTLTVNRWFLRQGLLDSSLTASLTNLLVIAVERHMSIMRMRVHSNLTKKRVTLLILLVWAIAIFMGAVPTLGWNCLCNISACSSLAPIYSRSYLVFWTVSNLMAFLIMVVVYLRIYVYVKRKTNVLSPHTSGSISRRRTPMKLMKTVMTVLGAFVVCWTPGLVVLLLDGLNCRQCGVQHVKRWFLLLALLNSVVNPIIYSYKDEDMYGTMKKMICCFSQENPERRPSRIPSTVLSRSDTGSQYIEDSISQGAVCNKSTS
Method in brief: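 Stably transfected CHO cells, serum-starved overnight, loaded with Calcium 4 dye 1 h at 37 °C in HBSS/20 mM Hepes with 0.3% fatty-acid-free HSA. Compounds preincubated 30 min at room temperature, then cells stimulated with 10 nM LPA; intracellular Ca2+ read by fluorescence; IC50 from titration curves.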

[2] = target: T2, human LPA1 (Homo sapiens, UniProt Q92633); assay: LPA1 calcium flux assay (HLPA1 Ca Flux); format: cell-based; details: Human LPA1 expressing CHO cells, stimulated with 10 nM LPA
T2 construct: the full-length cDNA for human LPA1 was obtained by PCR of the reverse transcription reaction; expressed in transfected cells
Method in brief: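 Compounds were fitted for IC50 from inhibition of the intracellular calcium rise evoked by 10 nM LPA. Test system: dye-loaded CHO cells stably transfected with human LPA1, serum-free overnight, with 30 min compound pretreatment at room temperature before stimulation.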

T2 sequence (Q92633 whole entry): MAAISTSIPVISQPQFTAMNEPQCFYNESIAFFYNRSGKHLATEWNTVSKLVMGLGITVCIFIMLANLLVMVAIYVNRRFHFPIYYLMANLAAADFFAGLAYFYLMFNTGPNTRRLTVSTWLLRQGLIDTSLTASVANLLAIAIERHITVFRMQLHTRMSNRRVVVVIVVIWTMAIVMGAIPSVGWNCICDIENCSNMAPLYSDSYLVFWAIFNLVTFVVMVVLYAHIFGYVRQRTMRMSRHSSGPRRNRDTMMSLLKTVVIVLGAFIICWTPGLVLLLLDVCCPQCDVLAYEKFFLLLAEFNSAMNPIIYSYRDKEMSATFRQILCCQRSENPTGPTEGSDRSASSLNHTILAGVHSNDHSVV

**Q.** Which results are given for `Cc1noc(-c2ccc(-c3ccc(C(C)(C)C(=O)O)cc3)cc2)c1NC(=O)O[C@H](C)c1ccccc1Cl` [Compound 1-89, 2-(4′-{4-[(R)-1-(2-Chloro-phenyl)-ethoxycarbonylamino]-3-methyl-isoxazol-5-yl}-biphenyl-4-yl)-2-methyl-propionic acid]?
**A.** IC50 [1]: 300 to 1000 nM; IC50 [2]: < 300 nM

**Q.** What does the source list for `Cc1noc(-c2ccc(-c3ccc(C(C)(C)C(=O)O)cc3)cc2)c1NC(=O)O[C@H](C)c1ccccc1F` [Compound 1-90, 2-(4′-{4-[(R)-1-(2-Fluoro-phenyl)-ethoxycarbonylamino]-3-methyl-isoxazol-5-yl}-biphenyl-4-yl)-2-methyl-propionic acid]?
**A.** IC50 [1]: 1000 to 50000 nM; IC50 [2]: < 300 nM

**Q.** For `Cc1noc(-c2ccc(-c3ccc(C(C)C(=O)O)cc3)cc2)c1NC(=O)O[C@H](C)c1ccccc1F` (stereo partly drawn) [Compound 1-91, 2-(4′-{4-[(R)-1-(2-Fluoro-phenyl)-ethoxycarbonylamino]-3-methyl-isoxazol-5-yl}-biphenyl-4-yl)-propionic acid], which IC50 [1] is on record?
**A.** 1000 to 50000 nM

**Q.** And the IC50 [2]?
**A.** < 300 nM

**Q.** How did the IC50 [1] turn out when `Cc1noc(-c2ccc(-c3ccc(C(C)C(=O)O)cc3)cc2)c1NC(=O)O[C@H](C)c1ccccc1Cl` (stereo partly drawn) [Compound 1-92, 2-(4′-{4-[(R)-1-(2-Chloro-phenyl)-ethoxycarbonylamino]-3-methyl-isoxazol-5-yl}-biphenyl-4-yl)-propionic acid] was run?
**A.** 300 to 1000 nM

**Q.** And the IC50 [2]?
**A.** < 300 nM

**Q.** With `Cc1noc(-c2ccc(-c3nc(C(=O)O)cs3)cc2)c1NC(=O)OC(C)c1ccccc1Cl` (centres unmarked) [Compound 1-93, 2-(4-{4-[1-(2-Chloro-phenyl)-ethoxycarbonylamino]-3-methyl-isoxazol-5-yl}-phenyl)-thiazole-4-carboxylic acid] as the compound, how does the IC50 [1] read?
**A.** 1000 to 50000 nM

**Q.** What about the IC50 [2] of the same compound?
**A.** < 300 nM

**Q.** For `Cc1noc(-c2ccc(-c3ncc(C(=O)O)s3)cc2)c1NC(=O)OC(C)c1ccccc1Cl` (centres unmarked) [Compound 1-94, 2-(4-{4-[1-(2-Chloro-phenyl)-ethoxycarbonylamino]-3-methyl-isoxazol-5-yl}-phenyl)-thiazole-5-carboxylic acid], which IC50 [1] is on record?
**A.** 1000 to 50000 nM

**Q.** What about the IC50 [2] of the same compound?
**A.** < 300 nM

**Q.** Which results are given for `COC(=O)Cc1cccc(Oc2ccc(-c3onc(C)c3NC(=O)O[C@H](C)c3ccccc3F)cc2)c1` [Compound 1-95, [3-(4-{4-[1-(2-Fluoro-phenyl)-ethoxycarbonylamino]-3-methyl-isoxazol-5-yl}-phenoxy)-phenyl]acetic acid methyl ester]?
**A.** IC50 [1]: 1000 to 50000 nM; IC50 [2]: < 300 nM

**Q.** `Cc1noc(-c2ccc(Oc3cccc(CC(=O)O)c3)cc2)c1NC(=O)O[C@H](C)c1ccccc1F` [Compound 1-96, [3-(4-{4-[1-(2-Fluoro-phenyl)-ethoxycarbonylamino]-3-methyl-isoxazol-5-yl}-phenoxy)-phenyl]-acetic acid] was tested. Which IC50 [1] did it give?
**A.** 1000 to 50000 nM

**Q.** And the IC50 [2]?
**A.** < 300 nM

**Q.** What does the source list for `Cc1noc(-c2ccc(CS(=O)(=O)c3ccc(CC(=O)O)cc3)cc2)c1NC(=O)OC(C)c1ccccc1Cl` (centres unmarked) [Compound 1-97, [4-(4-{4-[1-(2-Chloro-phenyl)-ethoxycarbonylamino]-3-methyl-isoxazol-5-yl}-phenylmethanesulfonyl)-phenyl]-acetic acid]?
**A.** IC50 [1]: 1000 to 50000 nM; IC50 [2]: < 300 nM

**Q.** Which results are given for `Cc1noc(-c2ccc(CS(=O)(=O)c3cccc(CC(=O)O)c3)cc2)c1NC(=O)OC(C)c1ccccc1Cl` (centres unmarked) [Compound 1-98, [3-(4-{4-[1-(2-Chloro-phenyl)-ethoxycarbonylamino]-3-methyl-isoxazol-5-yl}-phenylmethanesulfonyl)-phenyl]acetic acid]?
**A.** IC50 [1]: > 50000 nM; IC50 [2]: < 300 nM

**Q.** `Cc1noc(-c2ccc(CS(=O)(=O)c3ccccc3CC(=O)O)cc2)c1NC(=O)OC(C)c1ccccc1Cl` (centres unmarked) [Compound 1-99, [2-(4-{4-[1-(2-Chloro-phenyl)-ethoxycarbonylamino]-3-methyl-isoxazol-5-yl}-phenylmethanesulfonyl)-phenyl]-acetic acid] was tested. Which IC50 [1] did it give?
**A.** 1000 to 50000 nM

**Q.** And the IC50 [2]?
**A.** < 300 nM

**Q.** Which IC50 [1] does the source give for `Cc1noc(-c2ccc(COc3ccc(CC(=O)O)cc3)cc2)c1NC(=O)OC(C)c1ccccc1Cl` (centres unmarked) [Compound 1-100, [4-(4-{4-[1-(2-Chloro-phenyl)-ethoxycarbonylamino]-3-methyl-isoxazol-5-yl}-benzyloxy)-phenyl]-acetic acid] here?
**A.** 1000 to 50000 nM

**Q.** And the IC50 [2]?
**A.** < 300 nM

**Q.** Which results are given for `COC(=O)Cc1ccc(OCc2ccc(-c3onc(C)c3NC(=O)O[C@H](C)c3ccccc3Cl)cc2)cc1` [Compound 1-102, [4-(4-{4-[(R)-1-(2-Chloro-phenyl)-ethoxycarbonylamino]-3-methyl-isoxazol-5-yl}-benzyloxy)-phenyl]-acetic acid methyl ester]?
**A.** IC50 [1]: 1000 to 50000 nM; IC50 [2]: < 300 nM

**Q.** Which results are given for `Cc1noc(-c2ccc(COc3ccc(CC(=O)O)cc3)cc2)c1NC(=O)O[C@H](C)c1ccccc1Cl` [Compound 1-103, [4-(4-{4-[(R)-1-(2-Chloro-phenyl)-ethoxycarbonylamino]-3-methyl-isoxazol-5-yl}-benzyloxy)-phenyl]-acetic acid]?
**A.** IC50 [1]: 1000 to 50000 nM; IC50 [2]: < 300 nM

**Q.** `Cc1noc(-c2ccc(Sc3ccc(CC(=O)O)cc3)cc2)c1NC(=O)O[C@H](C)c1ccccc1F` [Compound 1-109, [4-(4-{4-[(R)-1-(2-Fluoro-phenyl)-ethoxycarbonylamino]-3-methyl-isoxazol-5-yl}-phenylsulfanyl)-phenyl]-acetic acid] was tested. Which IC50 [1] did it give?
**A.** 1000 to 50000 nM

**Q.** And the IC50 [2]?
**A.** < 300 nM

**Q.** Which results are given for `Cc1noc(-c2ccc(-c3ccc(CC(=O)O)cc3)cc2)c1NC(=O)O[C@@H](C)c1ccccc1F` [Compound 1-111, (4′-{4-[(S)-1-(2-Fluoro-phenyl)-ethoxycarbonylamino]-3-methyl-isoxazol-5-yl}-biphenyl-4-yl)-acetic acid]?
**A.** IC50 [1]: 1000 to 50000 nM; IC50 [2]: < 300 nM

**Q.** Which IC50 [1] does the source give for `Cc1noc(-c2ccc(-c3ccc(CC(=O)O)cc3)cc2)c1NC(=O)O[C@@H](C)c1ccccc1Cl` [Compound 1-112, (4′-{4-[(S)-1-(2-Chloro-phenyl)-ethoxycarbonylamino]-3-methyl-isoxazol-5-yl}-biphenyl-4-yl)-acetic acid] here?
**A.** 1000 to 50000 nM

**Q.** What about the IC50 [2] of the same compound?
**A.** 300 to 1000 nM

**Q.** Which results are given for `Cc1noc(-c2ccc(COc3ccccc3CC(=O)O)cc2)c1NC(=O)O[C@H](C)c1ccccc1Cl` [Compound 1-114, [2-(4-{4-[(R)-1-(2-Chloro-phenyl)-ethoxycarbonylamino]-3-methyl-isoxazol-5-yl}-benzyloxy)-phenyl]-acetic acid]?
**A.** IC50 [1]: 1000 to 50000 nM; IC50 [2]: < 300 nM

**Q.** What does the source list for `Cc1noc(-c2ccc(-c3ccc(CC(=O)O)cc3)cc2)c1NC(=O)OC(C)c1cccc(F)c1F` (centres unmarked) [Compound 1-116, (4′-{4-[1-(2,3-Difluoro-phenyl)-ethoxycarbonylamino]-3-methyl-isoxazol-5-yl}-biphenyl-4-yl)-acetic acid]?
**A.** IC50 [1]: 1000 to 50000 nM; IC50 [2]: < 300 nM

**Q.** With `Cc1noc(-c2ccc(-c3ccc(CC(=O)O)cc3)cc2)c1NC(=O)OC(C)c1ccc(F)cc1F` (centres unmarked) [Compound 1-117, (4′-{4-[1-(2,4-Difluoro-phenyl)-ethoxycarbonylamino]-3-methyl-isoxazol-5-yl}-biphenyl-4-yl)-acetic acid] as the compound, how does the IC50 [1] read?
**A.** 1000 to 50000 nM

**Q.** What about the IC50 [2] of the same compound?
**A.** < 300 nM

**Q.** `Cc1noc(-c2ccc(-c3ccc(CC(=O)O)cc3)cc2)c1NC(=O)OC(C)c1cc(F)ccc1F` (centres unmarked) [Compound 1-119, (4′-{4-[1-(2,5-Difluoro-phenyl)-ethoxycarbonylamino]-3-methyl-isoxazol-5-yl}-biphenyl-4-yl)-acetic acid] was tested. Which IC50 [1] did it give?
**A.** 1000 to 50000 nM

**Q.** What about the IC50 [2] of the same compound?
**A.** < 300 nM

**Q.** Which results are given for `Cc1noc(-c2ccc(-c3ccc(CC(=O)O)cc3)cc2)c1NC(=O)OC(C)c1c(F)cccc1F` (centres unmarked) [Compound 1-120, (4′-{4-[1-(2,6-Difluoro-phenyl)-ethoxycarbonylamino]-3-methyl-isoxazol-5-yl}-biphenyl-4-yl)-acetic acid]?
**A.** IC50 [1]: > 50000 nM; IC50 [2]: < 300 nM

**Q.** How did the IC50 [1] turn out when `Cc1noc(-c2ccc(-c3cccc(CC(=O)O)c3)cc2)c1NC(=O)O[C@H](C)c1ccccc1` [Compound 1-121] was run?
**A.** > 50000 nM

**Q.** What about the IC50 [2] of the same compound?
**A.** < 300 nM

**Q.** What does the source list for `Cc1noc(-c2ccc(-c3ccc(C(=O)O)cc3)cc2)c1NC(=O)O[C@H](C)c1ccccc1` [Compound 1-122]?
**A.** IC50 [1]: 1000 to 50000 nM; IC50 [2]: < 300 nM

**Q.** Which results are given for `Cc1ccccc1[C@@H](C)OC(=O)Nc1c(C)noc1-c1ccc(-c2ccc(CC(=O)O)cc2)cc1` [Compound 1-124]?
**A.** IC50 [1]: 1000 to 50000 nM; IC50 [2]: < 300 nM

**Q.** Which results are given for `Cc1noc(-c2ccc(-c3ccc(CC(=O)O)cn3)cn2)c1NC(=O)O[C@H](C)c1ccccc1F` [Compound 1-126, (6′-{4-[(R)-1-(2-Fluoro-phenyl)-ethoxycarbonylamino]-3-methyl-isoxazol-5-yl}-[2,3,1]bipyridinyl-5-yl)-acetic acid]?
**A.** IC50 [1]: 1000 to 50000 nM; IC50 [2]: < 300 nM

**Q.** Which results are given for `Cc1noc(-c2ccc(-c3ccc(CC(=O)O)cc3)cc2Cl)c1NC(=O)O[C@H](C)c1ccccc1Cl` [Compound 1-129, (3′-Chloro-4′-{4-[(R)-1-(2-chloro-phenyl)-ethoxycarbonylamino]-3-methyl-isoxazol-5-yl}-biphenyl-4-yl)-acetic acid]?
**A.** IC50 [1]: 1000 to 50000 nM; IC50 [2]: < 300 nM

**Q.** Which results are given for `CCC(C(=O)O)c1ccc(-c2ccc(-c3onc(C)c3NC(=O)O[C@H](C)c3ccccc3Cl)cc2)cc1` (stereo partly drawn) [Compound 1-130, 2-(4′-{4-[(R)-1-(2-Chloro-phenyl)-ethoxycarbonylamino]-3-methyl-isoxazol-5-yl}-biphenyl-4-yl)-butyric acid]?
**A.** IC50 [1]: 300 to 1000 nM; IC50 [2]: < 300 nM
